In patent publication US10947251B2, “Therapeutic compounds and methods of use thereof” (GENENTECH, INC., priority 2018, dated 2021):

How the values were obtained:
hNav1.7 [1] = target: T1, hNav1.7 (Homo sapiens (Human), UniProt Q15858); assay: Tritiated compound binding to membranes from cells heterologously expressing hNav1.7 and the β1 subunit (LBA); conditions: competitive binding vs [3H]compound, membranes with hNav1.7 and β1 subunit; read-out: Nav1.7 LBA EVO IC50
Procedure: Example 39A. Tritiated Compound Binding to Membranes Isolated from Cells that Heterologously Express hNav1.7 and the β1 Subunit
Preparation of membranes containing recombinantly expressed sodium channels: Frozen recombinant cell pellets were thawed on ice and diluted to 4 times the cell pellet weight with ice cold 50 mM Tris HCl, pH 7.4 buffer. The cell suspensions were homogenized on ice using a motorized glass dounce homogeniser. Homogenates were further diluted 8.4 times with ice cold 50 mM Tris HCl, pH 7.4 buffer and then centrifuged at 200×g at 4° C. for 15 min. The supernatants were collected and centrifuged at 10000×g at 4° C. for 50 min. The pellets were then re-suspended in 100 mM NaCl, 20 mM Tris HCl, pH 7.4 buffer containing 1% v/v protease inhibitors (Calbiochem) and re-homogenized on ice. The homogenized membranes were then processed through a syringe equipped with a 26 gauge needle. Protein concentrations were determined by Bradford Assay and the membranes were stored at −80° C.
Saturation experiments. A competitive NaV1.7 inhibitor having a methyl group was tritiated. Three tritiums were incorporated in place of methyl hydrogens to generate [^3H]compound. Binding of this radioligand was performed in 5 mL borosilicate glass test tubes at room temperature. Binding was initiated by adding membranes to increasing concentrations of [^3H]compound in 100 mM NaCl, 20 mM Tris HCl, pH 7.4 buffer containing 0.01% w/v bovine serum albumin (BSA) for 18 h. Non-specific binding was determined in the presence of 1 μM unlabeled compound. After 18 h, the reactants were filtered through GF/C glass fiber filters presoaked in 0.5% w/v polyethylene imine. Filters were washed with 15 mL ice cold 100 mM NaCl, 20 mM Tris HCl, pH7.4 buffer containing 0.25% BSA to separate bound from free ligand. [^3H]compound bound to filters was quantified by liquid scintillation counting.
Binding reactions were performed in 96-well polypropylene plates at room temperature for 18 h. In 360 μL, membranes were incubated with 100 pM [^3H]compound and increasing concentrations of Test Compound. Non-specific binding was defined in the presence of 1 μM unlabeled compound. Reactions were transferred and filtered through 96-well glass fiber/C filter plates presoaked with 0.5% polyethylene imine. The filtered reactions were washed 5 times with 200 μL ice cold buffer containing 0.25% BSA. Bound radioactivity was determined by liquid scintillation counting.
For saturation experiments, non-specific binding was subtracted from total binding to provide specific binding and these values were recalculated in terms of pmol ligand bound per mg protein. Saturation curves were constructed and dissociation constants were calculated using the single site ligand binding model: Beq=(Bmax*X)/(X+Kd), where Beq is the amount of ligand bound at equilibrium, Bmax is the maximum receptor density, Kd is the dissociation constant for the ligand, and X is the free ligand concentration. For competition studies percent inhibition was determined and IC50 values were calculated using a 4 parameter logistic model (% inhibition=(A+((B−A)/(1+((x/C)^D)))) using XLfit, where A and B are the maximal and minimum inhibition respectively, C is the IC50 concentration and D is the (Hill) slope.
Example 39B. Tritiated Compound Binding to Membranes Isolated from Cells that Heterologous Express hNav1.7 and the β1 Subunit
Following the procedure described in Example 39A, and making modifications as required to: centrifuge supernatants at 100000×g instead of 10000×g; re-suspend pellets in a buffer containing 0.01% BSA in addition to 100 mM NaCl, 20 mM Tris HCl, pH 7.4 buffer, and 1% v/v […]; and storing membranes at −80° C. in single use aliquots instead of pooled.
Saturation experiments: Following the procedure described in Example 243A, and making modifications as required to incubate [3H]compound for 3 hours instead of 18 hours. […]

hNav1.7 [2] = target: T1, hNav1.7; assay: Electrophysiological assay (EP), voltage clamp on Syncropatch 384PE; format: cell-based; conditions: CHO cells expressing Nav1.7, holding potential −50 mV, 7.5 min compound incubation; read-out: EP_SP hNav1.7 EVO IC50
Excerpt: Example 39C. Electrophysiological Assay (EP) (In Vitro Assay)
Patch voltage clamp electrophysiology allows for the direct measurement and quantification of block of voltage-gated sodium channels (NaV's), and allows the determination of the time- and voltage-dependence of block which has been interpreted as differential binding to the resting, open, and inactivated states of the sodium channel (Hille, B., Journal of General Physiology (1977), 69: 497-515).
The following voltage clamp electrophysiology studies were performed on representative compounds using cells heterologously expressing Nav1.7 or Nav1.5 channels. cDNAs for Nav1.7 (NM_002977) and Nav1.5 (AC137587) were stably expressed in Chinese Hamstr Ovary (CHO) cells and CHL (Chinese Hamster Lung) cells respectively. Sodium currents were measured in the whole-cell configuration using Syncropatch 384PE (Nanlon Technologies, Germany). 1NPC®-384 chips with custom medium resistance and single hole mode are used. Internal solution consists of (in mM): 110 […], 10 CsCl, 20 EGTA, and 10 Hepes (pH adjusted to 7.2); and external solution contains (in mM): 60 NMDG, 80 NaCl, 4 KCl, 1 MgCl2, 2 CaCl2, 2 D-Glucose monohydrate, 10 Hepes (pH adjusted to 7.4 with NaOH).
After system flushing, testing compounds are dissolved in external solution containing 0.1% Pluronic F-127. The chip is moved into the measuring head and the instrument primes the chip with external and internal solutions. 10 l cells are added to the chip from a cell hotel, and a negative pressure of −50 mBar is applied to form a seal. Following treatment with seal enhancer solution and wash-off with external solution, negative pressure of −250 mbar is applied for 1 second to achieve the whole-cell configuration, followed by three washing steps in external solution. 20 µl of compounds is added to 40 µl in each well (1:3 dilution of compounds), and after mixing, 20 l is removed so the volume is retained at 40 ul. After approximately 13 minutes recordings, 20 µl/well of 2 uM TTX, or 333 uM Tetracaine (for Nav1.5) is added to achieve full block.
For voltage protocol, an holding potential of −50 mV is applied during the whole experiment. A depolarizing step is applied to −10 mV for 10 ms, followed by a hyperpolarization step to −150 mV for 20 ms to allow channel recovery from inactivation. A second depolarizing step is applied from −150 mV to −10 mV for 10 ms, where currents were measured to derive blocking effects of compounds. Inhibition is determined based on 7.5 min of compound incubation.

Structure (SMILES): COc1cc(-c2cccc(C(F)(F)F)c2)c(F)cc1N1C(=O)CC[C@H]2CN(S(=O)(=O)Nc3ccon3)CCC21 (stereo in doubt) [Example 36, (4aS,8aS)-1-(2-fluoro-5-methoxy-3′-(trifluoromethyl)-[1,1′-biphenyl]-4-yl)-N-(isoxazol-3-yl)-2-oxooctahydro-1,6-naphthyridine-6(2H)-sulfonamide]
- IC50 (hNav1.7 [1]): 20.7 nM
- IC50 (hNav1.7 [2]): 2.19 nM

Structure (SMILES): COc1cc(-c2cccc(C(F)(F)F)c2)c(F)cc1N1C(=O)CC[C@H]2CN(S(=O)(=O)Nc3ccon3)CCC21 (stereo in doubt) [Example 37, (4aS,8aR)-1-(2-fluoro-5-methoxy-3′-(trifluoromethyl)-[1,1′-biphenyl]-4-yl)-N-(isoxazol-3-yl)-2-oxooctahydro-1,6-naphthyridine-6(2H)-sulfonamide]
- IC50 (hNav1.7 [1]): 761 nM
- IC50 (hNav1.7 [2]): 12.9 nM

Structure (SMILES): COc1cc(-c2ccc(F)c(C(F)(F)F)c2)c(F)cc1N1C(=O)CO[C@@H]2CN(S(=O)(=O)Nc3ccon3)CC[C@H]21 [Example 1, (4aR,8aR)-1-(2,4′-difluoro-5-methoxy-3′-(trifluoromethyl)-[1,1′-biphenyl]-4-yl)-N-(isoxazol-3-yl)-2-oxohexahydro-1H-pyrido[3,4-b][1,4]oxazine-6(7H)-sulfonamide]
- IC50 (hNav1.7 [1]): 44.3 nM
- IC50 (hNav1.7 [2]): 1.12 nM

Structure (SMILES): COc1cc(-c2ccc(F)c(C(F)(F)F)c2)c(F)cc1N1C(=O)CO[C@H]2CN(S(=O)(=O)Nc3ccon3)CC[C@@H]21 [Example 2, (4aS,8aS)-1-(2,4′-difluoro-5-methoxy-3′-(trifluoromethyl)-[1,1′-biphenyl]-4-yl)-N-(isoxazol-3-yl)-2-oxohexahydro-1H-pyrido[3,4-b][1,4]oxazine-6(7H)-sulfonamide]
- IC50 (hNav1.7 [1]): 38.4 nM
- IC50 (hNav1.7 [2]): 0.915 nM

Structure (SMILES): COc1cc(-c2cccc(C(F)(F)F)c2)c(F)cc1N1C(=O)CO[C@@H]2CN(S(=O)(=O)Nc3ccon3)CC[C@H]21 [Example 3, (4aR,8aR)-1-(2-fluoro-5-methoxy-3′-(trifluoromethyl)-[1,1′-biphenyl]-4-yl)-N-(isoxazol-3-yl)-2-oxohexahydro-1H-pyrido[3,4-b][1,4]oxazine-6(7H)-sulfonamide]
- IC50 (hNav1.7 [1]): 67 nM
- IC50 (hNav1.7 [2]): 2.26 nM

Structure (SMILES): COc1cc(-c2cccc(C(F)(F)F)c2)c(F)cc1N1C(=O)CO[C@H]2CN(S(=O)(=O)Nc3ccon3)CC[C@@H]21 [Example 4, (4aS,8aS)-1-(2-fluoro-5-methoxy-3′-(trifluoromethyl)-[1,1′-biphenyl]-4-yl)-N-(isoxazol-3-yl)-2-oxohexahydro-1H-pyrido[3,4-b][1,4]oxazine-6(7H)-sulfonamide]
- IC50 (hNav1.7 [1]): 60 nM
- IC50 (hNav1.7 [2]): 3.52 nM

Structure (SMILES): COc1cc(-c2cc(F)cc(C(F)(F)F)c2)c(F)cc1N1C(=O)CO[C@@H]2CN(S(=O)(=O)Nc3ccon3)CC[C@H]21 [Example 5, (4aR,8aR)-1-(2,3′-difluoro-5-methoxy-5′-(trifluoromethyl)-[1,1′-biphenyl]-4-yl)-N-(isoxazol-3-yl)-2-oxohexahydro-1H-pyrido[3,4-b][1,4]oxazine-6(7H)-sulfonamide]
- IC50 (hNav1.7 [1]): 79 nM
- IC50 (hNav1.7 [2]): 2.79 nM

Structure (SMILES): COc1cc(-c2cc(F)cc(C(F)(F)F)c2)c(F)cc1N1C(=O)CO[C@H]2CN(S(=O)(=O)Nc3ccon3)CC[C@@H]21 [Example 6, (4aS,8aS)-1-(2,3′-difluoro-5-methoxy-5′-(trifluoromethyl)-[1,1′-biphenyl]-4-yl)-N-(isoxazol-3-yl)-2-oxohexahydro-1H-pyrido[3,4-b][1,4]oxazine-6(7H)-sulfonamide]
- IC50 (hNav1.7 [1]): 52.9 nM
- IC50 (hNav1.7 [2]): 1.84 nM

Structure (SMILES): COc1cc(-c2cc(C(F)(F)F)ccc2F)c(F)cc1N1C(=O)CO[C@@H]2CN(S(=O)(=O)Nc3ccon3)CC[C@H]21 [Example 7, (4aR,8aR)-1-(2,2′-difluoro-5-methoxy-5′-(trifluoromethyl)-[1,1′-biphenyl]-4-yl)-N-(isoxazol-3-yl)-2-oxohexahydro-1H-pyrido[3,4-b][1,4]oxazine-6(7H)-sulfonamide]
- IC50 (hNav1.7 [1]): 167 nM
- IC50 (hNav1.7 [2]): 5.76 nM

Structure (SMILES): COc1cc(-c2cc(C(F)(F)F)ccc2F)c(F)cc1N1C(=O)CO[C@H]2CN(S(=O)(=O)Nc3ccon3)CC[C@@H]21 [Example 8, (4aS,8aS)-1-(2,2′-difluoro-5-methoxy-5′-(trifluoromethyl)-[1,1′-biphenyl]-4-yl)-N-(isoxazol-3-yl)-2-oxohexahydro-1H-pyrido[3,4-b][1,4]oxazine-6(7H)-sulfonamide]
- IC50 (hNav1.7 [1]): 82.8 nM
- IC50 (hNav1.7 [2]): 4.92 nM

Structure (SMILES): COc1cc(-c2cccc(F)c2)c(F)cc1N1C(=O)CO[C@@H]2CN(S(=O)(=O)Nc3ccon3)CC[C@H]21 [Example 9, (4aR,8aR)-1-(2,3′-difluoro-5-methoxy-[1,1′-biphenyl]-4-yl)-N-(isoxazol-3-yl)-2-oxohexahydro-1H-pyrido[3,4-b][1,4]oxazine-6(7H)-sulfonamide]
- IC50 (hNav1.7 [1]): 2000 nM
- IC50 (hNav1.7 [2]): 19.4 nM

Structure (SMILES): COc1cc(-c2cccc(F)c2)c(F)cc1N1C(=O)CO[C@H]2CN(S(=O)(=O)Nc3ccon3)CC[C@@H]21 [Example 10, (4aS,8aS)-1-(2,3′-difluoro-5-methoxy-[1,1′-biphenyl]-4-yl)-N-(isoxazol-3-yl)-2-oxohexahydro-1H-pyrido[3,4-b][1,4]oxazine-6(7H)-sulfonamide]
- IC50 (hNav1.7 [1]): 716 nM
- IC50 (hNav1.7 [2]): 47.8 nM

Structure (SMILES): COc1cc(-c2cccc(C(F)(F)F)c2F)c(F)cc1N1C(=O)CO[C@@H]2CN(S(=O)(=O)Nc3ccon3)CC[C@H]21 [Example 11, (4aR,8aR)-1-(2,2′-difluoro-5-methoxy-3′-(trifluoromethyl)-[1,1′-biphenyl]-4-yl)-N-(isoxazol-3-yl)-2-oxohexahydro-1H-pyrido[3,4-b][1,4]oxazine-6(7H)-sulfonamide]
- IC50 (hNav1.7 [1]): 230 nM
- IC50 (hNav1.7 [2]): 11.2 nM
